In US20120269830A1, “CONJUGATES WITH IMPROVED PHARMACOKINETIC PROPERTIES” (priority 2009, published 2012):

What was measured:
[1] = test system: db/db mice; experiment: Reduction of fasting blood glucose in db/db mice; format: in vivo; details: intravenous; for blood glucose at 4 and 8 hours post treatment: food access after 4 hours
Protocol: Synthetic GLP-1 peptide and recombinant GLP-1 Surrobody fusions were evaluated for their ability to lower plasma glucose in db/db mice. To reduce the effects of in vivo DPPIV proteolysis during the time course of the study GLP-1 both synthetic and recombinant GLP-1 functionally null Surrobodies used a GLP-1 variant containing a serine substitution for alanine at position 8 that reduces DPPIV inactivation. 8 db/db mice were used per group: Control SgG (3 mg/kg) (functionally null SgG that lacks the GLP-1 conjugate); GLP-1 peptide (0.8 mg/kg); GLP-1 SgG (1 mg/kg); and GLP-1 (3 mg/kg). Essentially db/db mice were matched by weight and relative blood glucose levels. Next, the subjects were injected intravenously with test article and isolated with access to water, but not food. Glucose levels were monitored by handheld glucometer after 1 hour and 4 hours. After 4 hours the mice were allowed free access to both food and water. An additional reading was made at 8 hours following drug administration.

[2] = molecular target: Dipeptidyl protease IV (DPP-IV) (Homo sapiens, UniProt P27487); details: cited from earlier work
Sequence of Dipeptidyl protease IV (DPP-IV) (P27487 whole entry): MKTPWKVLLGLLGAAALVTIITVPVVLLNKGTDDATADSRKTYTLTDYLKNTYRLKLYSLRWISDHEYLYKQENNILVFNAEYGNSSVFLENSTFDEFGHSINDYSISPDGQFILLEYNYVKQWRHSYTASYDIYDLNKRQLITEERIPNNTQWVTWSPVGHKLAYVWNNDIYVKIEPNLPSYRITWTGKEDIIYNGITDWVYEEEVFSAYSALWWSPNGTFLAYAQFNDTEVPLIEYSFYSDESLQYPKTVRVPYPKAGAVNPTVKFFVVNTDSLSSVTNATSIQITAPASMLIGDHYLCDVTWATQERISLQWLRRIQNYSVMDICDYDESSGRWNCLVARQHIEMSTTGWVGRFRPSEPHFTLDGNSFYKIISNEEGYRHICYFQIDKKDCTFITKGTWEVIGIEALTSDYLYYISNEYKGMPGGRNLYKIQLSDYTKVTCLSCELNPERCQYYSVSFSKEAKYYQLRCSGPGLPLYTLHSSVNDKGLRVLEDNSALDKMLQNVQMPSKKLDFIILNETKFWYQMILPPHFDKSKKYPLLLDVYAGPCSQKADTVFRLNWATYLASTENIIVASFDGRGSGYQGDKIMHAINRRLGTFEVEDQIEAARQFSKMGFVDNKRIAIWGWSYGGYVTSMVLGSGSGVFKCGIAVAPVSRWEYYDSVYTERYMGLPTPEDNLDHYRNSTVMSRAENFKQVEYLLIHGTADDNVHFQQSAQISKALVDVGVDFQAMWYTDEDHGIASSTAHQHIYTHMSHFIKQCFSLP

Row | Sequence | blood glucose after 1 hour ([1]; fasted, GLP-1 SgG 1 and 3 mg/kg, GLP-1 peptide 0.8 mg/kg) | blood glucose at 4 and 8 hours post treatment ([1]; GLP-1 SgG 1 and 3 mg/kg, GLP-1 peptide 0.8 mg/kg) | blood glucose at 4 and 8 hours post treatment ([1]; GLP-1 SgG 1 and 3 mg/kg, GLP-1 peptide 0.8 mg/kg, listed as GLP-1 peptide control) | resistance to proteolytic inactivation by DPP-IV [2] | blood glucose reduction overall, through 8 hours ([1]; 1 and 3 mg/kg, FIG. 17) | time to inactivation by DPP-IV [2] [min]
1 | HSEGTFTSDVSSYLEGQAAKEFIAWLVKGRG [GLP-1 peptide, GLP-1 receptor agonist with serine for alanine substitution at position 8] | considerable blood glucose reduction | started to approach levels of control Surrobody | unable to maintain the same degree of blood glucose levels | markedly resistant |  | 
2 | HAEGTFTSDVSSYLEGQAAKEFIAWLVKGRG [GLP-1] |  |  |  |  | acutely reduces blood glucose through 8 hours | ≤ 2
